Structures can show the parent of a compound that is named as a salt. Where two headings read alike, the source gives them in different places.
Target: T1, Full-length (FL)-PRMT5-MEP50 enzyme complex (Homo sapiens, UniProt O14744)
T1 construct: Full-length (FL)-PRMT5-MEP50 enzyme complex (recombinant proteins from baculovirus-transfected Sf21 cells: FL-PRMT5; MW=73837 kDa and FL-MEP50; MW=38614); made in house; host or cells: baculovirus-transfected Sf21 insect cells
Assay: PRMT5-MEP50 Enzyme Methylation Assay
Assay type: biochemical
Details: 1.0 nM PRMT5-MEP50, 75 nM biotinylated peptide, 15 μM SAM
Method: PRMT5-MEP50 biochemical assay is a direct measurement of the methylation activity of the enzyme complex on a short peptide substrate derived from the N-terminus of H4 histone. Methylation experiment is performed with recombinant PRMT5-MEP50 protein complex. The assessment of inhibitory effect of small molecules is measured by the effectiveness of the compounds to inhibit this reaction (EC50).
In this assay, the potency (EC50) of each compound was determined from a twenty-point (1:2 serial dilution; top compound concentration of 100000 nM) titration curve using the following outlined procedure. To each well of a white ProxiPlus 384 well-plate, 100 nL of compound (1% DMSO in final assay volume of 10 μL) was dispensed, followed by the addition of 8 μL of 1× assay buffer (50 mM Bicine pH 8.0, 1 mM DTT, 0.004% Tween20, 0.01% BSA) containing 1.25 nM of Full-length (FL)-PRMT5-MEP50 enzyme complex (recombinant proteins from baculovirus-transfected Sf21 cells: FL-PRMT5; MW=[…] and FL-MEP50; MW=38614) and 1 μL of 150 μM S-(5′-Adenosyl)-L-Methionine Chloride (SAM). Plates were sealed and placed in a 37° C. humidified chamber for a 60 minutes pre-incubation with compound. Subsequently, each reaction was initiated by the addition of 1 μL 1× assay buffer containing 750 nM biotinylated H4R3(Mel) peptide. The final reaction in each well of 10 μL consists of 1.0 nM PRMT5-MEP50, 75 nM biotinylated-peptide, and 15 μM SAM. Methylation reactions proceeded for 150 minutes in a sealed plate at 37° C. Reactions were immediately quenched by the addition of 1 μL of 5% formic acid. Plates were then frozen and shipped to SAMDI™ Tech Inc. to determine the percent conversion from H4R3(Mel) to H4R3(Me2). Dose-response curves were generated by plotting percent effect (% product conversion; Y-axis) vs. Log 10 compound concentrations (X-axis). EC50 values were determined by non-linear regression according to models for either sigmoidal (4 parameters) or biphasic (7 parameters) dose-response curves.

[1] = one EC50: 4 parameters single site sigmoidal model, EC50 1: first value of 7 parameters biphasic model, read-out: Enzyme Methylation Assay (EC50 or EC50 1)

T1 sequence (O14744 whole entry): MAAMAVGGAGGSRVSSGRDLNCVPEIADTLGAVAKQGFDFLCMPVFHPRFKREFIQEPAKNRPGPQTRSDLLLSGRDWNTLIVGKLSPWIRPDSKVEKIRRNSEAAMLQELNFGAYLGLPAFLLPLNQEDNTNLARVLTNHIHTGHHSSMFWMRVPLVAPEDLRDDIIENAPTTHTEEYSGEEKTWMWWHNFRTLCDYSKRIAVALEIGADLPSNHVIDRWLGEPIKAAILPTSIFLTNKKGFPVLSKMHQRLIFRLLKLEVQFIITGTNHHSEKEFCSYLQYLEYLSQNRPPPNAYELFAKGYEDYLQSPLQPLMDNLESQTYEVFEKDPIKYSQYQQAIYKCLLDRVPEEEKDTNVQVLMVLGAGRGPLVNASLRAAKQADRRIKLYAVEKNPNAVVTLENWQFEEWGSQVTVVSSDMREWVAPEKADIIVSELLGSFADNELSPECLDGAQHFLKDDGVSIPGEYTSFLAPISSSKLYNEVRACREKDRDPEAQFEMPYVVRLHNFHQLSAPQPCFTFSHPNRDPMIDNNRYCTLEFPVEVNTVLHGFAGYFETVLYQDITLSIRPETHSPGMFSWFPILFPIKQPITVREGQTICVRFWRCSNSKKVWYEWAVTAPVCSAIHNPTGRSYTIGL
T1 sequence (Q9BQA1 whole entry partner): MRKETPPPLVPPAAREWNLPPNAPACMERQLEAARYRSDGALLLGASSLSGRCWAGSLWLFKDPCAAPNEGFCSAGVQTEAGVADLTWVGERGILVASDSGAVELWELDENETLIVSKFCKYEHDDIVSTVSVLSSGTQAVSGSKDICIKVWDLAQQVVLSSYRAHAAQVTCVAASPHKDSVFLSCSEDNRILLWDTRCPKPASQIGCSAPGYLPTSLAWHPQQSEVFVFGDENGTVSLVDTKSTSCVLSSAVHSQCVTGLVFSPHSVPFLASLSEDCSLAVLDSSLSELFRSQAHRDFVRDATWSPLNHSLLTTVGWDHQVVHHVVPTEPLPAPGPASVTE

EC50 [1] [nM]	EC50 (second EC50 of 7 parameters biphasic model, read-out: Enzyme Methylation Assay (EC50 2)) [nM]	Structure (SMILES)
0.4		Cc1ncnc2c1ccn2[C@@H]1O[C@@H]2[C@H](Cc3ccc4cc(C(F)F)c(N)nc4c3)CC[C@]2(O)[C@H]1O [Example 23, (2R,3R,3aS,6S,6aR)-6-((2-amino-3-(difluoromethyl)quinolin-7-yl)methyl)-2-(4-methyl-7H-pyrrolo[2,3-d]pyrimidin-7-yl)hexahydro-3aH-cyclopenta[b]furan-3,3a-diol]
0.4		Nc1nc2cc(C[C@@H]3CC[C@@]4(O)[C@@H]3O[C@@H](n3cc(F)c5c(N)ncnc53)[C@@H]4O)cc(F)c2cc1F [Example 24, (2R,3R,3aS,6S,6aR)-6-((2-amino-3,5-difluoroquinolin-7-yl)methyl)-2-(4-amino-5-fluoro-7H-pyrrolo[2,3-d]pyrimidin-7-yl)hexahydro-3aH-cyclopenta[b]furan-3,3a-diol]
11	8910	Cc1ncnc2c1ccn2[C@@H]1O[C@@H]2[C@H](Cc3cnc4cc(F)c(N)nc4c3)CC[C@]2(O)[C@H]1O [Example 25, (2R,3R,3aS,6S,6aR)-6-((6-amino-7-fluoro-1,5-naphthyridin-3-yl)methyl)-2-(4-methyl-7H-pyrrolo[2,3-d]pyrimidin-7-yl)hexahydro-3aH-cyclopenta[b]furan-3,3a-diol, 3HCl]
1.1		Nc1nc2c(F)c(C[C@@H]3CC[C@@]4(O)[C@@H]3O[C@@H](n3ccc5c(N)ncnc53)[C@@H]4O)ccc2cc1Cl [Example 26, (2R,3R,3aS,6S,6aR)-6-((2-amino-3-chloro-8-fluoroquinolin-7-yl)methyl)-2-(4-amino-7H-pyrrolo[2,3-d]pyrimidin-7-yl)hexahydro-3aH-cyclopenta[b]furan-3,3a-diol]
0.4		Nc1nc2cc(C[C@@H]3CC[C@@]4(O)[C@@H]3O[C@@H](n3ccc5c(N)ncnc53)[C@@H]4O)c(F)cc2cc1F [Example 27, (2R,3R,3aS,6S,6aR)-6-[(2-amino-3,6-difluoroquinolin-7-yl)methyl]-2-(4-amino-7H-pyrrolo[2,3-d]pyrimidin-7-yl)hexahydro-3aH-cyclopenta[b]furan-3,3a-diol]
0.8		Nc1nc2nc(C[C@@H]3CC[C@@]4(O)[C@@H]3O[C@@H](n3ccc5c(N)ncnc53)[C@@H]4O)ccc2cc1Cl [Example 28, (2R,3R,3aS,6S,6aR)-6-((7-amino-6-chloro-1,8-naphthyridin-2-yl)methyl)-2-(4-amino-7H-pyrrolo[2,3-d]pyrimidin-7-yl)hexahydro-3aH-cyclopenta[b]furan-3,3a-diol trihydrochloride]
0.3		Nc1nc2cc(C[C@@H]3CC[C@@]4(O)[C@@H]3O[C@@H](n3ccc5c(N)ncnc53)[C@@H]4O)cc(F)c2cc1F [Example 29, (2R,3R,3aS,6S,6aR)-6-[(2-amino-3,5-difluoroquinolin-7-yl)methyl]-2-(4-amino-7H-pyrrolo[2,3-d]pyrimidin-7-yl)hexahydro-3aH-cyclopenta[b]furan-3,3a-diol]
0.7		Nc1nc2cc(C[C@@H]3CC[C@@]4(O)[C@@H]3C[C@@H](n3cc(F)c5c(N)ncnc53)[C@@H]4O)cc(F)c2cc1F [Example 30, (1S,2R,3aR,4S,6aR)-4-((2-amino-3,5-difluoroquinolin-7-yl)methyl)-2-(4-amino-5-fluoro-7H-pyrrolo[2,3-d]pyrimidin-7-yl)hexahydropentalene-1,6a(1H)-diol]
0.6		Nc1nc2cc(C[C@@H]3CC[C@@]4(O)[C@@H]3C[C@@H](n3cc(F)c5c(N)ncnc53)[C@@H]4O)ccc2cc1F [Example 33, (1S,2R,3aR,4S,6aR)-4-((2-amino-3-fluoroquinolin-7-yl)methyl)-2-(4-amino-5-fluoro-7H-pyrrolo[2,3-d]pyrimidin-7-yl)hexahydropentalene-1,6a(1H)-diol]
0.3		Nc1nc2cc(C[C@@H]3CC[C@@]4(O)[C@@H]3C[C@@H](n3cc(F)c5c(N)ncnc53)[C@@H]4O)ccc2cc1Cl [Example 34, (1S,2R,3aR,4S,6aR)-4-((2-amino-3-chloroquinolin-7-yl)methyl)-2-(4-amino-5-fluoro-7H-pyrrolo[2,3-d]pyrimidin-7-yl)hexahydropentalene-1,6a(1H)-diol]
0.5		Cc1cn([C@@H]2C[C@@H]3[C@H](Cc4cc(F)c5cc(F)c(N)nc5c4)CC[C@]3(O)[C@H]2O)c2ncnc(N)c12 [Example 35, (1S,2R,3aR,4S,6aR)-4-[(2-amino-3,5-difluoroquinolin-7-yl)methyl]-2-(4-amino-5-methyl-7H-pyrrolo[2,3-d]pyrimidin-7-yl)hexahydropentalene-1,6a(1H)-diol]
0.5		Cc1cn([C@@H]2C[C@@H]3[C@H](Cc4cc(F)c5cc(Cl)c(N)nc5c4)CC[C@]3(O)[C@H]2O)c2ncnc(N)c12 [Example 36, (1S,2R,3aR,4S,6aR)-4-[(2-amino-3-chloro-5-fluoroquinolin-7-yl)methyl]-2-(4-amino-5-methyl-7H-pyrrolo[2,3-d]pyrimidin-7-yl)hexahydropentalene-1,6a(1H)-diol]
0.3		Cc1nc(N)c2ccn([C@@H]3C[C@@H]4[C@H](Cc5ccc6cc(Br)c(N)nc6c5)CC[C@]4(O)[C@H]3O)c2n1 [Example 37, (1S,2R,3aR,4S,6aR)-2-(4-amino-2-methyl-7H-pyrrolo[2,3-d]pyrimidin-7-yl)-4-((2-amino-3-bromoquinolin-7-yl)methyl)hexahydropentalene-1,6a(1H)-diol]
0.3		Cc1cn([C@@H]2C[C@@H]3[C@H](Cc4ccc5cc(F)c(N)nc5c4)CC[C@]3(O)[C@H]2O)c2ncnc(N)c12 [Example 38, (1S,2R,3aR,4S,6aR)-4-((2-amino-3-fluoroquinolin-7-yl)methyl)-2-(4-amino-5-methyl-7H-pyrrolo[2,3-d]pyrimidin-7-yl)hexahydropentalene-1,6a(1H)-diol]
0.3		Cc1cn([C@@H]2C[C@@H]3[C@H](Cc4ccc5cc(Cl)c(N)nc5c4)CC[C@]3(O)[C@H]2O)c2ncnc(N)c12 [Example 39, (1S,2R,3aR,4S,6aR)-4-((2-amino-3-chloroquinolin-7-yl)methyl)-2-(4-amino-5-methyl-7H-pyrrolo[2,3-d]pyrimidin-7-yl)hexahydropentalene-1,6a(1H)-diol]
0.4		Cc1cn([C@@H]2C[C@@H]3[C@H](Cc4ccc5cc(Br)c(N)nc5c4)CC[C@]3(O)[C@H]2O)c2ncnc(N)c12 [Example 40, (1S,2R,3aR,4S,6aR)-4-((2-amino-3-bromoquinolin-7-yl)methyl)-2-(4-amino-5-methyl-7H-pyrrolo[2,3-d]pyrimidin-7-yl)hexahydropentalene-1,6a(1H)-diol]

Structure (SMILES)	EC50 [1] [nM]	EC50 (second EC50 of 7 parameters biphasic model, read-out: Enzyme Methylation Assay (EC50 2)) [nM]
Cc1nc(N)c2ccn([C@@H]3C[C@@H]4[C@H](Cc5ccc6cc(Cl)c(N)nc6c5)CC[C@]4(O)[C@H]3O)c2n1 [Example 31, (1S,2R,3aR,4S,6aR)-2-(4-amino-2-methyl-7H-pyrrolo[2,3-d]pyrimidin-7-yl)-4-((2-amino-3-chloroquinolin-7-yl)methyl)hexahydropentalene-1,6a(1H)-diol 2,2,2-trifluoroacetate]	0.4	
Cc1nc(N)c2ccn([C@@H]3C[C@@H]4[C@H](Cc5ccc6cc(F)c(N)nc6c5)CC[C@]4(O)[C@H]3O)c2n1 [Example 32, (1S,2R,3aR,4S,6aR)-2-(4-amino-2-methyl-7H-pyrrolo[2,3-d]pyrimidin-7-yl)-4-((2-amino-3-fluoroquinolin-7-yl)methyl)hexahydropentalene-1,6a(1H)-diol 2,2,2-trifluoroacetate]	0.4	
